Assays:
[1] = molecular target: T1, Histone deacetylase HD2 (Zea mays, UniProt Q94F81); experiment: Inhibitory concentration against Histone deacetylase 2 in maize; type: functional
T1 sequence (Q94F81 whole entry): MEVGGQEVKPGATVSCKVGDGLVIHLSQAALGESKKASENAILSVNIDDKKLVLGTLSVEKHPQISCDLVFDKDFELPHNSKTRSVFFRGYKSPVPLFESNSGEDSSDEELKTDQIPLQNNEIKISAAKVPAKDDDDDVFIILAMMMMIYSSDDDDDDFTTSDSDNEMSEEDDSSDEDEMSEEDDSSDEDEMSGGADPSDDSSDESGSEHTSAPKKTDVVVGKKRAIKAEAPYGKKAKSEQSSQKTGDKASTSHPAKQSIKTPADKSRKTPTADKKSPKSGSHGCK

[2] = Inhibitory concentration against Histone deacetylase 1A in maize; type: functional, Zea mays
[3] = Inhibitory concentration against Histone deacetylase 1B in maize; type: functional, Zea mays
[4] = tested on: Zea mays; experiment: Selectivity of for class II (HD1A) against class I (HD1B) histone deacetylases; type: functional
[5] = tested on: Zea mays; experiment: Selectivity for class I (HD1B) against class II (HD1A) histone deacetylases; type: functional

IC50 [1]	IC50 [2]	IC50 [3]	Structure (SMILES)	Selectivity index [4]	Selectivity index [5]
213 nM	132 nM	239 nM	O=C(CCCCCSc1nccc(O)n1)NO		
9000 nM	13300 nM	7400 nM	O=C(/C=C/Sc1nc(O)cc(Cc2ccccc2)n1)NO		
229 nM			O=C(CCCSc1nc(Cc2ccccc2)cc(=O)[nH]1)NO		
35 nM	25 nM	48 nM	CCc1ccccc1-c1cc(O)nc(SCCCCCC(=O)NO)n1	2	
31800 nM	38200 nM	30200 nM	O=C(CC1CSc2nc(Cc3ccccc3)cc(=O)n21)NO (stereo not drawn)		
18 nM	29 nM		O=C(CCCCCSc1nc(Cc2ccccc2)cc(=O)[nH]1)NO		
7 nM	0.8 nM	0.4 nM	O=C(O)[C@@H]1C[C@]2(C(=O)O)C=C[C@@H](O)[C@@H](C2)O1		2
37 nM	53 nM	76 nM	O=C(CCCCCCSc1nc(O)cc(Cc2ccccc2)n1)NO		
12 nM	6 nM	19 nM	O=C(CCCCCSc1nc(-c2ccccc2)cc(=O)[nH]1)NO	3.2	
	885 nM	251 nM	O=C(CCCSc1nc(O)cc(Cc2ccccc2)n1)NO		3.5
61 nM	64 nM	193 nM	O=C(CCCCCCCSc1nc(O)cc(Cc2ccccc2)n1)NO	3	
125 nM	181 nM	130 nM	O=C(CCCCSc1nc(O)cc(Cc2ccccc2)n1)NO		
		28 nM	O=C(CCCCCCC(=O)Nc1ccccc1)NO [VORINOSTAT]		
110 nM	78 nM	112 nM	Cc1cc(O)nc(SCCCCCC(=O)NO)n1		
135 nM	66 nM	116 nM	CCCc1cc(O)nc(SCCCCCC(=O)NO)n1		
38 nM	126 nM	41 nM	O=C(CCSc1nc(O)cc(Cc2ccccc2)n1)NO		3.1

Reference: ChEMBL document CHEMBL1143449, “Exploring the connection unit in the HDAC inhibitor pharmacophore model: novel uracil-based hydroxamates” (Bioorg Med Chem Lett, 2005)
